Measurements published in ChEMBL document CHEMBL4609972, “Histone deacetylase 8 (HDAC8) and its inhibitors with selectivity to other isoforms: An overview” (Eur J Med Chem, 2019).
Square brackets hold non-standard residues; d marks the D form. Peptide text beside a SMILES is read from it. * marks the point of attachment. Asu = N[C@@H](CCCCCC(=O)O)C(=O)O; NHOH = ON*

Columns and labels:
[1] = target: T1, Protein deacetylase HDAC6 (Homo sapiens, UniProt Q9UBN7); test: Inhibition of HDAC6 (unknown origin)
T1 sequence (Q9UBN7 whole entry): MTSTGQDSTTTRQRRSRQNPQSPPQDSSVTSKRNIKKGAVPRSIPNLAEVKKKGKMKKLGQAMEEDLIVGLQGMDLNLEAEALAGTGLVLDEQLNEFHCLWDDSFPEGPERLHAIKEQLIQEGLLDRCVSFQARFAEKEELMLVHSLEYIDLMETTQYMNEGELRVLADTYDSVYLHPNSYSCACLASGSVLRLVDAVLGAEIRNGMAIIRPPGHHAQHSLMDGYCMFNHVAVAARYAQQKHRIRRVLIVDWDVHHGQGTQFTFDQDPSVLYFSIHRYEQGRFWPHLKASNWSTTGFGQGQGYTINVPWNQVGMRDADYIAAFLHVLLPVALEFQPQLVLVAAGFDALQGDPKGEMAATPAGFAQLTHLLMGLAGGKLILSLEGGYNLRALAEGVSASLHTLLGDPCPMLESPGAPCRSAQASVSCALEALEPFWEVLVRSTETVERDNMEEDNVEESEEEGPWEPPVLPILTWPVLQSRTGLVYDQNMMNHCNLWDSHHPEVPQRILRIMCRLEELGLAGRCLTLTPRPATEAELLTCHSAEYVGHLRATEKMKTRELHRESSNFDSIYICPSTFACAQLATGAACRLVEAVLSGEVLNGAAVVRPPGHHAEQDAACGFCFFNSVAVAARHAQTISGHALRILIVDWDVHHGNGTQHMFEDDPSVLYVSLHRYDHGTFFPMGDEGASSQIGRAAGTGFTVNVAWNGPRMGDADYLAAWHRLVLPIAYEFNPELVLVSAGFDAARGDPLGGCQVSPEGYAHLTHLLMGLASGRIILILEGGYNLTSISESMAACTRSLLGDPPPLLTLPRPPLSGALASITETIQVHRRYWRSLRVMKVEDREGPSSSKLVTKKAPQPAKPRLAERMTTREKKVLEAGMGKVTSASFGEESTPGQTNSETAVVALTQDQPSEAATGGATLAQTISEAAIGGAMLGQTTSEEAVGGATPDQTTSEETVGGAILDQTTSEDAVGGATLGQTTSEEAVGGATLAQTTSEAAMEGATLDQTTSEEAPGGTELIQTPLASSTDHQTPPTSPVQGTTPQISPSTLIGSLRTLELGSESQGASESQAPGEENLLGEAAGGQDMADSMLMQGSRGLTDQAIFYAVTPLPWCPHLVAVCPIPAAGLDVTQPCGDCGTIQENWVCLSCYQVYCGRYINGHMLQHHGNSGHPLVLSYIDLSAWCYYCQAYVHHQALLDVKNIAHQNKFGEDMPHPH

Histone deacetylase 8 = target: T2, Histone deacetylase 8 (Homo sapiens, UniProt Q9BY41); test: Inhibition of HDAC8 (unknown origin)
T2 sequence (Q9BY41 whole entry): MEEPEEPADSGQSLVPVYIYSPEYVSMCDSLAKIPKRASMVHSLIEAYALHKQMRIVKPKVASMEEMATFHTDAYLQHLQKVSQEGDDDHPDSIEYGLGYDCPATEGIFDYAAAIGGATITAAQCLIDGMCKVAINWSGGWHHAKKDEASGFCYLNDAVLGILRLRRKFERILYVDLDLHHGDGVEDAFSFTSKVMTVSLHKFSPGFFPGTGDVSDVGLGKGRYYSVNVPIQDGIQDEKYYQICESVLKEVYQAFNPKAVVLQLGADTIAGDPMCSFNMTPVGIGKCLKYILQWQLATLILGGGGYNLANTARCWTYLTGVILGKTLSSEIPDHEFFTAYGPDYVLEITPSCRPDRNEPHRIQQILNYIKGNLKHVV

[2] = target: 72 kDa type IV collagenase (Homo sapiens, UniProt P08253); test: Inhibition of MMP2 (unknown origin)
Histone deacetylase = test: Inhibition of HDAC (unknown origin); type: protein assay, Homo sapiens

Sequence of 72 kDa type IV collagenase (P08253 whole entry): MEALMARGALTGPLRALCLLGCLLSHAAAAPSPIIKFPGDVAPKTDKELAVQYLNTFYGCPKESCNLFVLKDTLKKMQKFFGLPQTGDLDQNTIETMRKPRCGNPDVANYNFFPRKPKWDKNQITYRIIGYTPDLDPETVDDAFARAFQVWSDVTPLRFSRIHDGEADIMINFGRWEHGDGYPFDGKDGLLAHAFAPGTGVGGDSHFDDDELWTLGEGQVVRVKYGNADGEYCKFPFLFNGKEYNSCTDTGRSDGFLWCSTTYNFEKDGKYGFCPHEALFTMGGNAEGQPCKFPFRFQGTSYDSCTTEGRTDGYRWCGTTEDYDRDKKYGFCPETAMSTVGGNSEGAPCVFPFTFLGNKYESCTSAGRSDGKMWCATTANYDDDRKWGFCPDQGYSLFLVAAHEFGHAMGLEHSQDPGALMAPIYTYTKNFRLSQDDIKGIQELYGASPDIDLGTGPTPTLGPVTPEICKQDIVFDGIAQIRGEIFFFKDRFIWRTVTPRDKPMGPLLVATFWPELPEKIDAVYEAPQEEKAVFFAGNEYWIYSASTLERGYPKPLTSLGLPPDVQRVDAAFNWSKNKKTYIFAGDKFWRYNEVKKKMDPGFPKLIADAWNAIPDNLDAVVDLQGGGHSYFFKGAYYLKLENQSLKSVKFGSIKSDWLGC

O=C(NO)c1ccc(CN(CCO)C(=O)Cc2ccccc2)cc1
IC50 [1]: 376 nM

O=C(O)CC[C@@H](NC(=O)Cc1ccc(Br)cc1)C(=O)NCc1ccc([N+](=O)[O-])cc1
IC50 (Histone deacetylase 8): 2890 nM | IC50 [2]: 2890 nM

O=C(CCCCCNC(=O)c1ccc(NC(=O)NC(C(=O)Nc2cccc(C(F)(F)F)c2)c2ccccc2)cc1)NO (centres undefined)
IC50 (Histone deacetylase 8): 967 nM

O=C(CCCCCCC(=O)Nc1cc(C(F)(F)F)ccc1Cl)NO
IC50 (Histone deacetylase 8): 119 nM

O=C(NO)c1cccc(-c2nc(CSc3ccccc3)n[nH]2)c1
IC50 (Histone deacetylase 8): 53 nM

O=C(NO)c1ccc(NCc2csc3ccccc23)cc1
IC50 [1]: 1400 nM

CC(C)[C@@H](C#Cc1ccc(C(=O)NO)cc1)NC(=O)C1Cc2ccccc2O1 (some centres undefined)
IC50 [1]: 417 nM

CC[C@H](C)[C@@H]1NC(=O)[C@@H](Cc2ccc(OC)cc2)NC(=O)[C@H](CCCCCC(=O)NO)NC(=O)[C@H]2CCCN2C1=O (cyclo([Asu](NHOH)[dY](Me)I[dP]))
IC50 (Histone deacetylase): 3.32 nM
